Reference: article PMC11695783 (Frontiers in Pharmacology, 2024)
Values after ≈ are worked out from the molar mass of the structure shown. Values joined by “and” are separate entries in the source; they are usually repeats but may differ in a detail not shown here. Equal values may be shown once. Read-outs that look alike come from different tables or passages of the source.

Columns and labels:
[1] = test system: Mycoplasma pneumoniae strain M129 (ATCC 29342); assay: Susceptibility assay (broth microdilution MIC, MBC); assay type: cell-based; conditions: for MBC: M. pneumoniae strain M129; for MIC: M. pneumoniae strain M129, ≈96 h
Experimental: Mycoplasma pneumoniae strain M129 (ATCC 29342) was obtained from American Type Culture Collection (Manassas, VA, United States) and cultured at 37°C in the presence of 5% CO2 in the modified SP-4 liquid medium (pH 7.4) containing 2.1% (w/v) CM1166 mycoplasma broth base medium (Oxoid, Hants, United Kingdom), 20% (v/v) fetal bovine serum (FBS, Bioexplorer, CO, United States), 0.4% yeast extract (Oxoid), 0.55% (w/v) CMRL 1066 w/L-glutamine culture media powder (MyBioSource, San Diego, CA, United States), 1% D-glucose (Macklin) and 0.004% phenol red (Macklin). […] The solid medium is based on the above formula with the addition of 1% agar, and the characteristic fried egg-like colonies were used for experiments following incubation for 7 d on plates.
The broth microdilution MIC procedure was performed according to standardized methods for microdilution susceptibility testing of mycoplasma species ([Waites et al., 2012]). […] The concentration of organisms should be determined to approximately 10^6 CFU/mL prior to inoculation into 96-well plates. Due to the action of phenol red, the acidic metabolites of microbial growth can turn the medium yellow. […] The MBC assays were performed based on MICs following endpoint reading and the liquid in the high-concentration wells was removed for bacterial counting.

[2] = test system: IFN-γ; assay: IFN-γ in BALF of M. pneumoniae-infected mice (ELISA); assay type: in vivo, BALB/c mice; conditions: for IFN-γ in BALF (AV): group AV; for IFN-γ in BALF: individual mice
Experimental: (§1) Adult BALB/c mice (20–22 g) were divided into a control group, a positive group, and compound 16C groups at low (20 mg/kg), medium (40 mg/kg), and high-dose (80 mg/kg) levels and oral and intramuscular tiamulin treatment groups (40 mg/kg). We formulated the above dose range based on the dose at which tiamulin was approved for injection (10–20 mg/kg) and the dose previously reported (45 mg/kg) ([EMA, 1999]; [Xiao et al., 2016]). In summary, we selected similar doses for compound 16C in vivo study. 40 mg/kg was used as an intermediate value, one-half of it as a low dose, and two times of it as a high dose. To prepare the challenge solution, logarithmic phase culture suspensions were centrifuged at 1700 g for 10 min, and the pellets were suspended in sterile PBS to obtain 1 × 10^9 CFU/mL. Before the challenge, mice were anesthetized with tribromoethanol (250 mg/kg, IP). Mice in the control groups were intratracheally inoculated with sterile PBS, whereas mice in the other groups were intratracheally challenged with 50 μL (1 × 10^9 CFU/mL) M. pneumoniae suspension once a day for 3 days. Compound 16C and tiamulin (tiamulin-IM group) dissolved using the method mentioned in pharmacokinetic studies, and the tiamulin fumarate soluble powder was dissolved in ddH2O for oral administration. After the final challenge, antibiotics were administered at low, medium, and high-dose levels (see above) at 10 a.m. and 10 p.m. daily for 4 consecutive days. Normal saline containing 5% DMSO and 5% Tween-80 was administered as control and positive groups by thigh intramuscular injection. To compare the efficacy of compound 16C and tiamulin under the same route of administration, we used the original tiamulin for intramuscular administration in the same formulation. On the other hand, tiamulin fumarate soluble powder, approved for oral administration to treat animal mycoplasma diseases in China, was administered to mice by gavage. Based on a clinical study of lefamulin in community-acquired bacterial pneumonia (CABP), subjects were administered twice a day and the 96 ± 24 h of starting treatment was an essential point for early clinical response (ECR) ([Paukner et al., 2022]). We therefore stopped treatment at 96 h and sampled at 192 h to explore whether the disease worsened after cessation of treatment. Bronchoalveolar lavage fluid (BALF) and lungs were collected at 0, 96, 192 h (Samples of 0 h were collected before starting treatment, and mice were fed ad libitum without drug treatment during 96–192 h) after the first dose, BALF for cytokine and cytological analysis and lung for histopathological evaluation.
Bronchoalveolar lavage was performed according to a standardized method ([Van Hoecke et al., 2017]). BALF was obtained following infusion of 0.5 mL PBS via tracheal cannulation into the lung twice (total 1 mL), and 200 µL was used for mycoplasma counts. The remaining BALF was centrifuged at 300 g for 10 min to separate the debris. The supernatants were stored at −80°C, and the debris was resuspended in the same volume of PBS containing red blood cell lysis buffer. A hemocytometer was used to count total cell numbers in BALF, and cell smears (Diff-Quik staining) were prepared to calculate the percentages of neutrophils, macrophages, and lymphocytes. IFN-γ, TNF-α, and CXCL1 levels in BALF samples were assessed using commercial ELISA kits using guidelines recommended by the manufacturer (Elabscience, Wuhan, China). Parallel data for each experimental group at each time point were obtained from six different mice.

[3] = test system: Mycoplasma pneumoniae-infected mice (lung tissue); assay: Histopathological assessment of lung tissue (HPS, response and recovery rates) in M. pneumoniae-infected mice; assay type: in vivo, BALB/c mice; design: HPS value (mean) / HPS: scale not given here; conditions: for HPS: individual mice
Experimental: as §1
Lung tissues were collected at 0, 96, and 192 h following drug administration. Lungs were collected from 6 mice in each group at 96 h and 13–15 mice in each group at 192 h. In addition, the lungs of 8 untreated infected mice were taken at 0 h as initial controls. Lung tissues were fixed in 4% paraformaldehyde, and whole-mount sections of paraffin-embedded lungs were stained with hematoxylin and eosin (H&E). The histopathologic score (HPS) was determined according to published protocols by a single pathologist who was unaware of the treatment status and groups of the animals ([Cimolai et al., 1992]). The HPS was based on individual grading of peribronchiolar/bronchial infiltrate, bronchiolar/bronchial luminal exudate, perivascular infiltrate, and parenchymal pneumoniae.

[4] = compound 16C 20 mg/kg IM, 192 h
[5] = compound 16C 40 mg/kg IM, 192 h
[6] = compound 16C 80 mg/kg IM, 192 h
[7] = M. pneumoniae-infected mice, 20mg/kg, intramuscular, n=13-15
[8] = M. pneumoniae-infected mice, 40mg/kg, intramuscular, n=13-15
[9] = M. pneumoniae-infected mice, 80mg/kg, intramuscular, n=13-15
[10] = compound 16C 40 mg/kg IM, from HPS at 192 h
[11] = compound 16C 80 mg/kg IM, from HPS at 192 h
[12] = M. pneumoniae-infected mice, IM, n=13-15
[13] = M. pneumoniae-infected mice, PO, n=13-15
[14] = tiamulin 40 mg/kg IM, from HPS at 192 h

C=CC1(C)CC(OC(=O)CSc2ccc(NC(=O)Cc3ccc([N+](=O)[O-])cc3)cc2)C2(C)C(C)CCC3(CCC(=O)C32)C(C)C1O (stereo not drawn) [compound 16C, 22–((4-((4-nitrophenyl)acetamido)phenyl)thio)deoxypleuromutilin]
MBC [1]: 7.812 ng/mL (≈ 0.012 µM)
MIC [1]: 1.953 ng/mL (≈ 0.00301 µM)
IFN-γ in BALF (AV) ([2]; compound 16C 20 mg/kg IM, 96 h): 61.9115 pg/mL
IFN-γ in BALF ([2]; compound 16C 20 mg/kg IM, 96 h): 66.1116 pg/mL and 70.7764 pg/mL and 60.3497 pg/mL and 48.4263 pg/mL and 63.8937 pg/mL
IFN-γ in BALF (AV) [2, 4]: 53.7268 pg/mL
IFN-γ in BALF [2, 4]: 69.6648 pg/mL and 70.9988 pg/mL and 47.7654 pg/mL and 32.8171 pg/mL and 65.2242 pg/mL and 35.8907 pg/mL
IFN-γ in BALF (AV) ([2]; compound 16C 40 mg/kg IM, 96 h): 31.4597 pg/mL
IFN-γ in BALF ([2]; compound 16C 40 mg/kg IM, 96 h): 36.9995 pg/mL and 36.109 pg/mL and 18.2065 pg/mL and 31.1186 pg/mL and 39.6709 pg/mL and 26.6536 pg/mL
IFN-γ in BALF (AV) [2, 5]: 43.7114 pg/mL
IFN-γ in BALF [2, 5]: 35.5746 pg/mL and 45.5493 pg/mL and 40.3832 pg/mL and 54.2951 pg/mL and 42.5204 pg/mL and 43.9456 pg/mL
IFN-γ in BALF (AV) ([2]; compound 16C 80 mg/kg IM, 96 h): 33.085 pg/mL
IFN-γ in BALF ([2]; compound 16C 80 mg/kg IM, 96 h): 42.8939 pg/mL and 46.612 pg/mL and 43.7193 pg/mL and 17.0898 pg/mL and 29.6102 pg/mL and 18.5846 pg/mL
IFN-γ in BALF (AV) [2, 6]: 30.1626 pg/mL
IFN-γ in BALF [2, 6]: 41.5193 pg/mL and 31.3845 pg/mL and 29.0646 pg/mL and 27.0198 pg/mL and 28.7918 pg/mL and 26.4748 pg/mL and 26.8835 pg/mL
Recovery [3, 7]: 20.00%
Response [3, 7]: 93.33%
Recovery [3, 8]: 35.7%
Response [3, 8]: 100%
Recovery [3, 9]: 50%
Response [3, 9]: 100%
HPS value (mean) ([3]; compound 16C 20 mg/kg IM, 96 h): 1.08
HPS ([3]; compound 16C 20 mg/kg IM, 96 h): 0.5 and 1 and 1.5
HPS value (mean) [3, 4]: 1
HPS [3, 4]: 1 and 0 and 4 and 0.5 and 1.5
Recovery ([3]; compound 16C 20 mg/kg IM, from HPS at 192 h (HPS reduced to 0)): 20.00%
Recovery ([3]; compound 16C 20 mg/kg IM, from HPS at 192 h (HPS reduced to 0), listed as Compound16C): 20%
Response ([3]; compound 16C 20 mg/kg IM, from HPS at 192 h, n = 13–15): 93.33%
HPS value (mean) ([3]; compound 16C 40 mg/kg IM, 96 h): 1
HPS ([3]; compound 16C 40 mg/kg IM, 96 h): 1 and 1.5 and 0
HPS value (mean) [3, 5]: 0.46
HPS [3, 5]: 0.5 and 0 and 2 and 1
Recovery [3, 10]: 35.7%
Response [3, 10]: 100%
HPS value (mean) ([3]; compound 16C 80 mg/kg IM, 96 h): 0.75
HPS ([3]; compound 16C 80 mg/kg IM, 96 h): 0.5 and 0 and 1
HPS value (mean) [3, 6]: 0.43
HPS [3, 6]: 0 and 0.5 and 1 and 1.5
Recovery [3, 11]: 50%
Response [3, 11]: 100%

C=C[C@]1(C)C[C@@H](OC(=O)CSCCN(CC)CC)[C@]2(C)[C@H](C)CC[C@]3(CCC(=O)[C@H]32)[C@@H](C)[C@@H]1O [tiamulin, Tiamulin, reference compound]
MIC ([1]; read-out: MIC): 7.81 ng/mL (≈ 0.0158 µM)
MBC ([1]; read-out: MBC): 62.5 ng/mL (≈ 0.127 µM)
IFN-γ in BALF (AV) ([2]; tiamulin 40 mg/kg IM, 96h): 32.2202 pg/mL
IFN-γ in BALF ([2]; tiamulin 40 mg/kg IM, 96 h, listed as Tiamulin-IM): 44.0596 pg/mL and 23.033 pg/mL and 20.7601 pg/mL and 28.3723 pg/mL and 44.8757 pg/mL
IFN-γ in BALF (AV) ([2]; tiamulin 40 mg/kg IM, 192 h): 31.227 pg/mL
IFN-γ in BALF ([2]; tiamulin 40 mg/kg IM, 192 h, listed as Tiamulin-IM): 40.7875 pg/mL and 41.6067 pg/mL and 42.4252 pg/mL and 23.316 pg/mL and 21.0452 pg/mL and 18.1814 pg/mL
Recovery [3, 12]: 35.7%
Response [3, 12]: 100%
Recovery [3, 13]: 6.67%
Response [3, 13]: 86.67%
HPS value (mean) ([3]; tiamulin 40 mg/kg IM, 96 h): 1
HPS ([3]; tiamulin 40 mg/kg IM, 96h, listed as TiamulinIM): 2.5 and 0.5 and 1
HPS ([3]; tiamulin 40 mg/kg IM, 192h, listed as TiamulinIM): 0.5 and 0 and 1
Recovery [3, 14]: 35.7%
Response [3, 14]: 100%
